Results as given in US11459296B2, “Antibacterial compounds” (INFEX Therapeutics Limited, priority 2018, dated 2022).
Counter-ions that a name gives are not always drawn.

Key:
A. baumannii SG698 NDM-1 [1] = experiment: Meropenem combination MIC, broth microdilution; type: cell-based; conditions: meropenem only (baseline)
Method: (§1) MICs were determined by exposing bacteria to serial dilutions of antibacterial agents in MHB-II (cation-adjusted Mueller-Hinton Broth pH 7.4) according to Clinical and Laboratory Standards Institute (CLSI) broth microdilution guidelines (Cockerill et al., 2012).
(§2) Combination MIC were performed as described for MIC determinations with the addition of 4 mg/L test article to MHB-II.

[2] = test system: E. coli ATCCBAA-2452 NDM-1; experiment: Meropenem combination MIC, broth microdilution; type: cell-based; conditions: meropenem only (baseline)
Method: as §1, §2

E. coli NCTC13476 IMP [3] = experiment: Meropenem combination MIC, broth microdilution; type: cell-based; conditions: meropenem only (baseline)
Method: as §1, §2

[4] = test system: K. pneumoniae ATCC BAA2146 NDM-1; experiment: Meropenem combination MIC, broth microdilution; type: cell-based; conditions: meropenem only (baseline)
Method: as §1, §2

[5] = test system: K. pneumoniae NCTC13439 VIM-1; experiment: Meropenem combination MIC, broth microdilution; type: cell-based; conditions: meropenem only (baseline)
Method: as §1, §2

[6] = test system: K. pneumoniae NCTC13440 VIM-1; experiment: Meropenem combination MIC, broth microdilution; type: cell-based; conditions: meropenem only (baseline)
Method: as §1, §2

A. baumannii SG698 NDM-1 [7] = experiment: Imipenem combination MIC, broth microdilution; type: cell-based; conditions: imipenem only (baseline)
Method: as §1, §2
(§3) Compounds of the invention were also tested in combination with imipenem.

[8] = test system: E. coli ATCCBAA-2452 NDM-1; experiment: Imipenem combination MIC, broth microdilution; type: cell-based; conditions: imipenem only (baseline)
Method: as §1, §2, §3

E. coli NCTC13476 IMP [9] = experiment: Imipenem combination MIC, broth microdilution; type: cell-based; conditions: imipenem only (baseline)
Method: as §1, §2, §3

[10] = test system: K. pneumoniae ATCC BAA2146 NDM-1; experiment: Imipenem combination MIC, broth microdilution; type: cell-based; conditions: imipenem only (baseline)
Method: as §1, §2, §3

[11] = test system: K. pneumoniae NCTC13440 VIM-1; experiment: Imipenem combination MIC, broth microdilution; type: cell-based; conditions: imipenem only (baseline)
Method: as §1, §2, §3

NDM-1 = NDM-1 (Klebsiella pneumoniae, UniProt C7C422); experiment: metallo-β-lactamase inhibition assay (nitrocefin); type: biochemical; conditions: 1.5 nM NDM-1, 100 μM nitrocefin, 37° C., pH 7.5
Method: Compounds of the invention were tested in a metallo-β-lactamase inhibition assay to investigate mechanism of action of the compounds. Results are reported as the concentration of test article required to inhibit enzyme activity by 50% (IC50).
Inhibition of metallo-β-lactamase enzyme function was performed at 37° C. in buffer at pH 7.5 (50 mM HEPES, 150 mM NaCl, 0.1 mM ZnSO4, 20 μg/mL PEG4000), containing 1.5 nM NDM-1, 100 μM nitrocefin, and a range of concentrations of compound. Absorbance at 490 nm was measured using a BMG LABTECH FLUOstar Omega microplate reader every minute for 30 minutes. IC50S were determined from the average increase in OD per minute versus the Log 10 concentration of compound using GraphPad Prism.

[12] = Cytotoxicity Assay (CellTiter-Glo); type: cell-based; conditions: human, Hep G2 cells (ATCC HB-8065); 24 h exposure, cell viability; read-out: HepG2 CC50
Method: Cytotoxicity was evaluated in human Hep G2 cells (ATCC HB-8065) seeded at a density of 2×10^5 cells per well and incubated for 24 h at 37° C., 5% CO2. Cells were exposed to a doubling dilution series of test article. After 24 h exposure, the viability of the cells was determined using CellTiter-Glo® (Promega, Wis., USA) according to the manufacturer's instructions. Results are reported as the concentration of test article required to reduce cell viability by 50% (CC50).

Chain of NDM-1 (C7C422 whole entry, looked up, species assumed): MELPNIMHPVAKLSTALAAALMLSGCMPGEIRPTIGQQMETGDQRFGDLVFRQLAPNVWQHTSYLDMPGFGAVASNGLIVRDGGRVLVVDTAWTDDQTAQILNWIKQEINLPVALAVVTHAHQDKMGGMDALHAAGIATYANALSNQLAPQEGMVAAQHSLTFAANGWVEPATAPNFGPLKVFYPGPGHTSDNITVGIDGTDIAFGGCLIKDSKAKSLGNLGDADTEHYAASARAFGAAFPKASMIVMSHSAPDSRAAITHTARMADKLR

C[C@@H](O)[C@H]1C(=O)N2C(C(=O)O)=C(S[C@@H]3CN[C@H](C(=O)N(C)C)C3)[C@H](C)[C@H]12 [Meropenem, meropenem]
Meropenem MIC (μg/mL) IV A. baumannii SG698 NDM-1 (A. baumannii SG698 NDM-1 [1]): 8 µg/mL
Meropenem MIC (μg/mL) I E. coli ATCCBAA-2452 NDM-1 [2]: 1 µg/mL
Meropenem MIC (μg/mL) II E. coli NCTC13476 IMP (E. coli NCTC13476 IMP [3]): 4 µg/mL
Meropenem MIC (μg/mL) III K. pneumoniae ATCC BAA2146 NDM-1 [4]: 16 µg/mL
Meropenem MIC (μg/mL) VII K. pneumoniae NCTC13439 VIM-1 [5]: 0.5 µg/mL
Meropenem MIC (μg/mL) V K. pneumoniae NCTC13440 VIM-1 [6]: 1 µg/mL

C[C@@H](O)[C@H]1C(=O)N2C(C(=O)O)=C(SCCN=CN)C[C@H]12 [Imipenem, imipenem]
Imipenem MIC IV A. baumannii SG698 NDM-1 (A. baumannii SG698 NDM-1 [7]): F (F≤80)
Imipenem MIC I E. coli ATCCBAA-2452 NDM-1 [8]: D (D≤10)
Imipenem MIC II E. coli NCTC13476 IMP (E. coli NCTC13476 IMP [9]): C (C≤5)
Imipenem MIC III K. pneumoniae ATCC BAA2146 NDM-1 [10]: E (E≤40)
Imipenem MIC V K. pneumoniae NCTC13440 VIM-1 [11]: D (D≤10)

NS(=O)(=O)n1ccc(-n2cccc2)c1C(=O)O [Example 73, 3-Pyrrol-1-yl-1-sulfamoyl-pyrrole-2-carboxylic acid, Sodium Salt]
IC50 (NDM-1): 2.57 µM
CC50 at 24 h [12]: > 256 µg/mL

Nc1ncc(-c2ccn(S(N)(=O)=O)c2C(=O)O)cc1F [Example 21, 3-(6-Amino-5-fluoro-3-pyridyl)-1-sulfamoyl-pyrrole-2-carboxylic acid]
IC50 (NDM-1): 3.36 µM
CC50 at 24 h [12]: > 256 µg/mL
